pEC50: −log10 of the molar value. A value given as a limit tells only on which side of the number the result lay.

KCNQ2 potassium channel (CHO-KCNQ2 cells), sequence (O43526 whole entry): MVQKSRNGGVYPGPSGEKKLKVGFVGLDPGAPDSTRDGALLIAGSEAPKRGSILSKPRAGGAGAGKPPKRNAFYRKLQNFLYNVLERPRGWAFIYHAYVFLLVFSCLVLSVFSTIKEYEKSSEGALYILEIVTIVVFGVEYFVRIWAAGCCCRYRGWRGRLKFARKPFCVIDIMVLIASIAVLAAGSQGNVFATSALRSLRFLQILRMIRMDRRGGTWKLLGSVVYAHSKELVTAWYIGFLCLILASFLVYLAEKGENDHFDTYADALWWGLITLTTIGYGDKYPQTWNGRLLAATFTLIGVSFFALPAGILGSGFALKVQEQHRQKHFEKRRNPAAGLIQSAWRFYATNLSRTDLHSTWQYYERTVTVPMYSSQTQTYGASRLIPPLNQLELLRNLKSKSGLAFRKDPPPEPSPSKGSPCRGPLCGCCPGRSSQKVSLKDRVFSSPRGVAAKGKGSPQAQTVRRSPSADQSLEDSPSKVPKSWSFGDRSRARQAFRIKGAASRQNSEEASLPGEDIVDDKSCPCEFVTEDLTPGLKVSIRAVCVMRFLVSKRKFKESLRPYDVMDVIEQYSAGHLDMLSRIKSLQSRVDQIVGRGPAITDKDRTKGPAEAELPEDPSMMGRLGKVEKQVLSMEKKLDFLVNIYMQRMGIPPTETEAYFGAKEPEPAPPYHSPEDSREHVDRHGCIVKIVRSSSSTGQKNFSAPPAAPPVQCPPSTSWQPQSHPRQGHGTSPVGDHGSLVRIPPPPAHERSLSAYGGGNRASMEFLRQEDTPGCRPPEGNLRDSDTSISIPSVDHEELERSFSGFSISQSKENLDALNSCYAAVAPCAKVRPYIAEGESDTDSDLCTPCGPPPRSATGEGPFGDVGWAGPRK

This experiment addresses KCNQ2 potassium channel (CHO-KCNQ2 cells) (Homo sapiens (Human), UniProt O43526). Kind of experiment: Activity test of potassium ion channel opener (FDSS/μCELL detection, FluxOR potassium ion channel assay). Particulars: CHO-KCNQ2 cells, FluxOR fluorescence, FDSS/μCELL. Format: cell-based. As to the method:
Activity Test of Potassium Ion Channel Opener (FDSS/ρCELL Detection)
Cell preparation: CHO-KCNQ2 cells were cultured in a 175 cm^2 culture flask, and when the cells was grown to a density of 60-80%, the culture medium was removed, washed with 7 mL PBS (Phosphate Buffered Saline) once, then 3 mL 0.25% Trypsin was added to digest. After the digestion was completed, 7 mL culture medium (90% DMEM/F12+10% FBS+500 μg/mL G418) was added to neutralize, centrifugated for 3 minutes at 800 rpm. The supernatant was aspirated, then 5 mL culture medium was added to resuspend, and then the cells were counted.
Cell plating: The density to 3×10^4/well was adjusted according to the results of cell counting. After standing at room temperature for 30 minutes, the cells were placed in a 37° C. CO2 incubator and incubated overnight for 16-18 hours. The cell density reached about 80%.
Fluorescent dye incubation: The cell culture medium was discarded, 80 μL/well loading buffer was added, and the cells were incubated in dark at room temperature for 60 minutes.
Compound incubation: the loading buffer was discarded, 80 μL/well prepared compound solution was added, incubated at room temperature and in dark for 20 minutes.
Fluorescence data collection: FDSS/μCELL instrument for real-time fluorescence is used for signal recording, wherein excitation wavelength was 480 nm, emission wavelength was 540 nm, and signals were recorded 1 times per second, after baseline was recorded for 10 seconds, the addition of 20 μL/well stimulation buffer was started, and then the signal was continuously record until the end of 180 seconds.
loading buffer: 10 mL/plate, the preparation method was as follows:
Test buffer sample: 100 mL/plate, the preparation method was as follows:
Stimulation buffer: 5 mL/plate, the preparation method was as follows:
The above buffer was from a commercially available kit, the kit name was FluxOR potassium ion channel assay, the manufacturer's brand was Invitrogen, the article number was F10017, the lot number was 913728.
20 mM DMSO compound mother liquor was prepared, 10 μL of 20 mM compound mother liquor was took and added into 20 μL DMSO solution, serially diluted 3 times to 8 intermediate concentrations; then the middle concentration of the compound was took to the test buffer, 200 times dilution to get the final concentration to be tested, 80 μL was took and added to the test plate.
The highest test concentration was 100 μM, followed by […], 33.33, 11.11, 3.70, 1.23, 0.41, 0.137, 0.045 μM, total 8 concentrations. Each concentration 3 replicate holes.
This concentration of DMSO had no effect on the KCNQ2 potassium channel.
Experimental data was analyzed by Excel 2007 and GraphPad Prism 5.0 software, and the ratio of 180 seconds was calculated to calculate the excitement effect. The excitement effect of the compound is calculated by the following formula: […]
Environment: Temperature about 25° C.
Reagent: FluxOR™ Detection Kit (Invitrogen, Cat #[…])
The experimental data in the report might meet the following criteria: Z′ Factor>0.5
2. Determination Results: See Table 1 for Details, where the Smaller EC50 was, the Higher the Activity of the Corresponding Compound was.
References for the above test methods:
(2) Jinfeng Yue et al. Acta Pharmacologica Sinica, 2016, 37:105-110.
On to `Cc1cc(N2CCCc3ccsc3C2)cc(C)c1NC(=O)CC(C)(C)C` [Compound 03026, N-(2,6-dimethyl-4-(4,5,6,8-tetrahydro-7H-thieno[2,3-c]azepin-7-yl)phenyl)-3,3-dimethylbutanamide], for which the pEC50 was 7.06.

`Cc1cc(N2CCCc3cscc3C2)cc(C)c1NC(=O)CC(C)(C)C` [Compound 03027, N-(2,6-dimethyl-4-(4,6,7,8-tetrahydro-5H-thieno[3,4-c]azepin-5-yl)phenyl)-3,3-dimethylbutanamide]: the pEC50 was 6.83.

Turning to `Cc1cc(N2CCCc3sccc3C2)cc(C)c1NC(=O)CC(C)(C)C` [Compound 03028, N-(2,6-dimethyl-4-(4,6,7,8-tetrahydro-5H-thieno[3,2-c]azepin-5-yl)phenyl)-3,3-dimethylbutanamide], the pEC50 was 6.57.

As to `Cc1cc(N2CCCc3cccnc3C2)cc(C)c1NC(=O)CC(C)(C)C` [Compound 03029, N-(2,6-dimethyl-4-(5,6,7,9-tetrahydro-8H-pyrido[2,3-c]azepin-8-yl)phenyl)-3,3-dimethylbutanamide], the pEC50 is 4.83.

In the case of `Cc1cc(N2CCCCc3sccc32)cc(C)c1NC(=O)CC(C)(C)C` [Compound 03034, (N-(2,6-dimethyl-6-(1-tert-butylacetyl)aniline))-(5,6,7,8-tetrahydro-4H)-thieno [3,2]azaanthracene], the pEC50 is 7.15.

Consider `Cc1cc(N2CCCCc3ncccc32)cc(C)c1NC(=O)CC(C)(C)C` [Compound 03037, N-(2,6-Dimethyl-4-(6,7,8,9-tetrahydro-5H-pyrido[32-b]azepin-5-yl)phenyl)-3,3-dimethylbutanamide], for which the pEC50 was 5.19.

In turn, `Cc1cc2c(s1)CCCCN2c1cc(C)c(NC(=O)CC(C)(C)C)c(C)c1` [Compound 03039, N-(2,6-dimethyl-4-(2-methyl-5,6,7,8-tetrahydro-4H-thieno[3,2-b]azepin-4-yl)phenyl)-3,3-dimethylbutyramide] showed a pEC50 of 6.39.

As to `Cc1cc(N2CCCCc3sc(Cl)cc32)cc(C)c1NC(=O)CC(C)(C)C` [Compound 03049, N-(4-(2-chloro-5,6,7,8-tetrahydro-4H-thieno[3,2-b]azepin-4-yl)-2,6-dimethylphenyl)-3,3-dimethylbutanamide], the pEC50 is 6.59.

Consider `Cc1cc(N2CCCOc3cc(F)ccc32)cc(C)c1NC(=O)CC(C)(C)C` [Compound 03059, N-(4-(8-fluoro-3,4-dihydrobenzo[b] [1,4]oxazepine-5(2H)-yl)-2,6-dimethylphenyl)-3,3-dimethylbutanamide], for which the pEC50 was 6.07.

For `Cc1cc(N2CCOc3cc(F)ccc32)cc(C)c1NC(=O)CC(C)(C)C` [Compound 03060, N-(2,6-dimethyl-6-(1-tert-butylacetyl)aniline)) 4-(7-fluoro-2,3-dihydro-4H-benzo[1,4] oxazine], the pEC50 was less than 4.00.

As for `Cc1ccc2c(c1)COCCN2c1cc(C)c(NC(=O)CC(C)(C)C)c(C)c1` [Compound 03066], the pEC50 is 7.31.

`Cc1cc(N2CCc3cc(F)ccc3C2)cc(C)c1NC(=O)CC(C)(C)C` [Compound B, reference compound]: the pEC50 was 7.01.

The compound `O=C(Nc1ccc(Cl)nc1)c1ccc(F)cc1` [ZTZ240, reference compound] gave a pEC50 of 5.08.

The values above are taken from patent US11365181B2, “P-phenylenediamine derivative as potassium channel regulator and preparation method and medical application thereof” (Shanghai Zhimeng Biopharma, Inc., priority 2018, dated 2022).
